Results from PubChem BioAssay (NCI).
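All cell lines were grown in 96-well plates and treated with compound for 48 hours. TGI is the concentration that stops growth completely.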

Assays:
Test in all cases: NCI-60 cell line screen, 48 h
EKVX NSCLC = test system: EKVX NSCLC
MOLT-4 leukemia = test system: MOLT-4 leukemia
HL-60(TB) leukemia = test system: HL-60(TB) leukemia
KM12 colon = test system: KM12 colon
T-47D breast = test system: T-47D breast
RXF 393 renal = test system: RXF 393 renal
HOP-62 NSCLC = test system: HOP-62 NSCLC
HS 578T breast = test system: HS 578T breast
SF-268 CNS = test system: SF-268 CNS
UO-31 renal = test system: UO-31 renal
UACC-257 melanoma = test system: UACC-257 melanoma
PC-3 prostate = test system: PC-3 prostate
HCT-116 colon = test system: HCT-116 colon
K-562 leukemia = test system: K-562 leukemia
COLO 205 colon = test system: COLO 205 colon
HT29 colon = test system: HT29 colon
MALME-3M melanoma = test system: MALME-3M melanoma
SNB-19 CNS = test system: SNB-19 CNS
SK-MEL-5 melanoma = test system: SK-MEL-5 melanoma
TK-10 renal = test system: TK-10 renal
CCRF-CEM leukemia = test system: CCRF-CEM leukemia
MCF7 breast = test system: MCF7 breast
A498 renal = test system: A498 renal
U251 CNS = test system: U251 CNS
OVCAR-3 ovarian = test system: OVCAR-3 ovarian
MDA-N = test system: MDA-N
NCI-H23 lung = test system: NCI-H23 lung
ACHN renal = test system: ACHN renal
SK-OV-3 ovarian = test system: SK-OV-3 ovarian
RPMI-8226 leukemia = test system: RPMI-8226 leukemia
IGROV1 ovarian = test system: IGROV1 ovarian
MDA-MB-435 = test system: MDA-MB-435
CAKI-1 renal = test system: CAKI-1 renal
OVCAR-8 ovarian = test system: OVCAR-8 ovarian
DU-145 prostate = test system: DU-145 prostate
NCI/ADR-RES ovarian = test system: NCI/ADR-RES ovarian
SF-539 CNS = test system: SF-539 CNS
M14 melanoma = test system: M14 melanoma
SK-MEL-2 melanoma = test system: SK-MEL-2 melanoma
SF-295 CNS = test system: SF-295 CNS
BT-549 breast = test system: BT-549 breast
HCC-2998 colon = test system: HCC-2998 colon
OVCAR-5 ovarian = test system: OVCAR-5 ovarian
MDA-MB-231 breast = test system: MDA-MB-231 breast
SR leukemia = test system: SR leukemia
NCI-H460 lung = test system: NCI-H460 lung
SN12C renal = test system: SN12C renal
786-0 renal = test system: 786-0 renal
LOX IMVI melanoma = test system: LOX IMVI melanoma
OVCAR-4 ovarian = test system: OVCAR-4 ovarian
SW-620 colon = test system: SW-620 colon
UACC-62 melanoma = test system: UACC-62 melanoma
SK-MEL-28 melanoma = test system: SK-MEL-28 melanoma
HCT-15 colon = test system: HCT-15 colon
NCI-H226 lung = test system: NCI-H226 lung
A549 NSCLC = test system: A549 NSCLC
HOP-92 NSCLC = test system: HOP-92 NSCLC
NCI-H522 lung = test system: NCI-H522 lung

CCOC(=O)C1C(=O)CC1(C)C (stereo unspecified)
TGI (EKVX NSCLC): > 10 µM
TGI (MOLT-4 leukemia): > 10 µM
TGI (HL-60(TB) leukemia): > 10 µM
TGI (KM12 colon): > 10 µM
TGI (T-47D breast): > 10 µM
TGI (RXF 393 renal): > 10 µM
TGI (HOP-62 NSCLC): > 10 µM
TGI (HS 578T breast): > 10 µM
TGI (SF-268 CNS): > 10 µM
TGI (UO-31 renal): > 10 µM
TGI (UACC-257 melanoma): > 10 µM
TGI (PC-3 prostate): > 10 µM
TGI (HCT-116 colon): > 10 µM
TGI (K-562 leukemia): > 10 µM
TGI (COLO 205 colon): > 10 µM
TGI (HT29 colon): > 10 µM
TGI (MALME-3M melanoma): > 10 µM
TGI (SNB-19 CNS): > 10 µM
TGI (SK-MEL-5 melanoma): > 10 µM
TGI (TK-10 renal): > 10 µM
TGI (CCRF-CEM leukemia): > 10 µM
TGI (MCF7 breast): > 10 µM
TGI (A498 renal): > 10 µM
TGI (U251 CNS): > 10 µM
TGI (OVCAR-3 ovarian): > 10 µM
TGI (MDA-N): > 10 µM
TGI (NCI-H23 lung): > 10 µM
TGI (ACHN renal): > 10 µM
TGI (SK-OV-3 ovarian): > 10 µM
TGI (RPMI-8226 leukemia): > 10 µM
TGI (IGROV1 ovarian): > 10 µM
TGI (MDA-MB-435): > 10 µM
TGI (CAKI-1 renal): > 10 µM
TGI (OVCAR-8 ovarian): > 10 µM
TGI (DU-145 prostate): > 10 µM
TGI (NCI/ADR-RES ovarian): > 10 µM
TGI (SF-539 CNS): > 10 µM
TGI (M14 melanoma): > 10 µM
TGI (SK-MEL-2 melanoma): > 10 µM
TGI (SF-295 CNS): > 10 µM
TGI (BT-549 breast): > 10 µM
TGI (HCC-2998 colon): > 10 µM
TGI (OVCAR-5 ovarian): > 10 µM
TGI (MDA-MB-231 breast): > 10 µM
TGI (SR leukemia): > 10 µM
TGI (NCI-H460 lung): > 10 µM
TGI (SN12C renal): > 10 µM
TGI (786-0 renal): > 10 µM
TGI (LOX IMVI melanoma): > 10 µM
TGI (OVCAR-4 ovarian): > 10 µM
TGI (SW-620 colon): > 10 µM
TGI (UACC-62 melanoma): > 10 µM
TGI (SK-MEL-28 melanoma): > 10 µM
TGI (HCT-15 colon): > 10 µM
TGI (NCI-H226 lung): > 10 µM
TGI (A549 NSCLC): > 10 µM
TGI (HOP-92 NSCLC): > 10 µM

COC1=C(OC)C(=O)C(Cc2c(C)nc3sccn23)=C(C)C1=O
TGI (EKVX NSCLC): 29 µM
TGI (KM12 colon): 33.9 µM
TGI (T-47D breast): > 100 µM
TGI (RXF 393 renal): 51.7 µM
TGI (HOP-62 NSCLC): 34.8 µM
TGI (HS 578T breast): 58.5 µM
TGI (SF-268 CNS): 37.3 µM
TGI (UO-31 renal): 29.1 µM
TGI (UACC-257 melanoma): 20.7 µM
TGI (PC-3 prostate): 51.6 µM
TGI (HCT-116 colon): 64.2 µM
TGI (K-562 leukemia): 39.8 µM
TGI (COLO 205 colon): 26.8 µM
TGI (HT29 colon): 32.2 µM
TGI (MALME-3M melanoma): 31 µM
TGI (SNB-19 CNS): 33.3 µM
TGI (SK-MEL-5 melanoma): 17.6 µM
TGI (TK-10 renal): 32 µM
TGI (CCRF-CEM leukemia): 23.8 µM
TGI (MCF7 breast): > 100 µM
TGI (A498 renal): 38.3 µM
TGI (U251 CNS): 33.1 µM
TGI (OVCAR-3 ovarian): 34.3 µM
TGI (MDA-N): 26 µM
TGI (NCI-H23 lung): 29.5 µM
TGI (ACHN renal): 30.1 µM
TGI (SK-OV-3 ovarian): 26.8 µM
TGI (RPMI-8226 leukemia): 24.7 µM
TGI (IGROV1 ovarian): 40.9 µM
TGI (MDA-MB-435): 28.6 µM
TGI (CAKI-1 renal): 34.9 µM
TGI (OVCAR-8 ovarian): 33.6 µM
TGI (DU-145 prostate): 38.6 µM
TGI (NCI/ADR-RES ovarian): 31.1 µM
TGI (SF-539 CNS): 31.2 µM
TGI (M14 melanoma): 36.6 µM
TGI (SK-MEL-2 melanoma): 41.5 µM
TGI (SF-295 CNS): 30 µM
TGI (BT-549 breast): 31 µM
TGI (HCC-2998 colon): 40.3 µM
TGI (OVCAR-5 ovarian): 34.6 µM
TGI (MDA-MB-231 breast): 32.9 µM
TGI (SR leukemia): 38.9 µM
TGI (NCI-H460 lung): 61.5 µM
TGI (SN12C renal): 31 µM
TGI (786-0 renal): 43.2 µM
TGI (LOX IMVI melanoma): 36.5 µM
TGI (OVCAR-4 ovarian): 18.1 µM
TGI (SW-620 colon): 34.8 µM
TGI (UACC-62 melanoma): 23.5 µM
TGI (SK-MEL-28 melanoma): 23.3 µM
TGI (HCT-15 colon): 41 µM
TGI (A549 NSCLC): 40.3 µM
TGI (NCI-H522 lung): 54.9 µM
